Data from patent US12331033B2, “Inhibitors of SARM1” (Disarm Therapeutics, Inc., priority 2020, dated 2025).

Target: SARM1 (ARM-SAM-TIR) (Homo sapiens (Human), UniProt Q6SZW1)
Experiment: ARM-SAM-TIR SARM1 IC50 assay (NADase activity, NAD+ cleavage, RapidFire MS)
Format: biochemical
Conditions: ARM-SAM-TIR lysate 5 μg/mL, 2 h pre-incubation, 5 μM NAD+, 2 hr room temperature
How it was run: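 Lysate of NRK1-HEK293T cells transfected with full-length ARM-SAM-TIR SARM1 (5 μg/mL final) pre-incubated with compound (1% DMSO) 2 h at room temperature in Dulbecco's PBS. Reaction started with 5 μM NAD+, run 2 hr at room temperature, then stopped with TCA/acetonitrile. NAD+ and ADPR quantified by RapidFire MS.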

Sequence of SARM1 (ARM-SAM-TIR) (Q6SZW1 other isoform, or with tags, fused parts or gaps): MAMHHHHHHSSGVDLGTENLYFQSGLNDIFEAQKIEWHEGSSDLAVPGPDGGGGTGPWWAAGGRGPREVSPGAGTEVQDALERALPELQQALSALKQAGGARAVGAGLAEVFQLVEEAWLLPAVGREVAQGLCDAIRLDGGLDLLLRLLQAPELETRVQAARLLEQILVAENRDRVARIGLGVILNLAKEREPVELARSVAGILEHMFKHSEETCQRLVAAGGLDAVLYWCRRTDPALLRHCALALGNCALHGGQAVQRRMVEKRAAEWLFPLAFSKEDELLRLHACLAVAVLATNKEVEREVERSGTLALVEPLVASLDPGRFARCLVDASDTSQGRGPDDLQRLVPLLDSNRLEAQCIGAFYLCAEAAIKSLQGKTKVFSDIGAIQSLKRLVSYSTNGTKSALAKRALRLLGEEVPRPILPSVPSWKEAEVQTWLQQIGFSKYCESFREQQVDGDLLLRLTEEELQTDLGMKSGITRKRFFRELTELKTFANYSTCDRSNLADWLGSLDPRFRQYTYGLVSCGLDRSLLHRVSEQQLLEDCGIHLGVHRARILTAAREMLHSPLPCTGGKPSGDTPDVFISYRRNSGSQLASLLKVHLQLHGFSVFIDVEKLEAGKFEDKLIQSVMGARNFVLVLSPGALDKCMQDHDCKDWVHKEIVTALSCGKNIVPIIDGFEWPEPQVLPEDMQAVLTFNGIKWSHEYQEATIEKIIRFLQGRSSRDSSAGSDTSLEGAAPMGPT

For `[2H]C([2H])(C(=O)Nc1nnc(-c2ccnnc2)[nH]1)C([2H])([2H])c1ccc(Cl)cc1` [Example 230], the IC50 was under 5 µM.
`Cc1c(-c2ccnnc2)n[nH]c1NC(=O)CC1CCOc2cc(Cl)ccc21` (centres unmarked) [Example 231] was tested, and the IC50 was under 5 µM.
`O=C(C[C@H]1CCOc2nc(Cl)ccc21)Nc1nnc(-c2ccncc2)[nH]1` [Example 232] showed an IC50 of under 5 µM.
Molecule `O=C(C[C@@H]1CCOc2nc(Cl)ccc21)Nc1nnc(-c2ccncc2)[nH]1` [Example 233] has an IC50 of under 5 µM.
`O=C(C[C@H]1CCOc2cc(Cl)ncc21)Nc1nnc(-c2ccncc2)[nH]1` [Example 234] was tested, and the IC50 was under 5 µM.
In the case of `O=C(C[C@H]1CCOc2cc(Cl)ncc21)Nc1nnc(-c2ccncc2)[nH]1` [Example 235], the IC50 is reported as 5 to 15 µM.
With `O=C(Nc1cc(-c2ccncc2)n[nH]1)[C@H]1C[C@H](c2ccc(Cl)nc2)C1` [Example 236] the IC50 was under 5 µM.
`Cc1c(-c2ccncc2)n[nH]c1NC(=O)[C@H]1C[C@H](c2ccc(Cl)nc2)C1` [Example 237] was tested, and the IC50 was under 5 µM.
`N#Cc1cnccc1-c1cc(NC(=O)CCc2ccc(Cl)cc2)[nH]n1` [Example 238] showed an IC50 of under 5 µM.
Work on `CN(C(=O)CCc1ccc(Cl)nc1)c1cc(-c2ccncc2)n[nH]1` [Example 239] yielded an IC50 of under 5 µM.
Molecule `Cc1nn(C)c(C)c1OCC(=O)Nc1[nH]nc(-c2ccncc2)c1C` [Example 240] has an IC50 of 5 to 15 µM.
With `Cc1c(-c2ccncc2)n[nH]c1NC(=O)Cn1cc(C)c2ccccc21` [Example 241] the IC50 was 5 to 15 µM.
In the case of `Cc1c(-c2ccncc2)n[nH]c1NC(=O)c1ccc(-n2ccnn2)cc1` [Example 242], the IC50 is reported as 5 to 15 µM.
In the case of `Cc1c(-c2ccncc2)n[nH]c1NC(=O)CCNC(=O)C1CC1C` (centres unmarked) [Example 243], the IC50 is reported as 5 to 15 µM.
With `CCC(C)c1cc(C(=O)Nc2[nH]nc(-c3ccncc3)c2C)on1` (centres unmarked) [Example 244] the IC50 was 5 to 15 µM.
`Cc1c(-c2ccncc2)n[nH]c1NC(=O)CCc1nc2ccccc2s1` [Example 245] was tested, and the IC50 was 5 to 15 µM.
Molecule `Cc1c(-c2ccncc2)n[nH]c1NC(=O)CC(C)c1ccc(F)cc1` (centres unmarked) [Example 246] has an IC50 of under 5 µM.
In the case of `Cc1c(-c2ccncc2)n[nH]c1NC(=O)/C=C/c1c(F)cccc1F` [Example 247], the IC50 is reported as 5 to 15 µM.
With `Cc1c(-c2ccncc2)n[nH]c1NC(=O)CCc1cccc(Cl)c1` [Example 248] the IC50 was under 5 µM.
With `Cc1c(-c2ccncc2)n[nH]c1NC(=O)CCc1cc(F)ccc1F` [Example 249] the IC50 was under 5 µM.
`Cc1[nH]c(NC(=O)CCc2ccc(Cl)nc2)nc1-c1ccncc1` [Example 250] showed an IC50 of under 5 µM.
`Cc1c(-c2ccncc2)n[nH]c1NC(=O)CCc1nc(C2CC2)no1` [Example 251] was tested, and the IC50 was 5 to 15 µM.
In the case of `Cc1c(-c2ccncc2)n[nH]c1NC(=O)c1ccc(OCC2CC2)cc1` [Example 252], the IC50 is reported as 5 to 15 µM.
`Cc1c(-c2ccncc2)n[nH]c1NC(=O)COc1ccc(C#N)cc1` [Example 253] was tested, and the IC50 was 5 to 15 µM.
Work on `Cc1cccc(CS(=O)(=O)Nc2[nH]nc(-c3ccncc3)c2C)c1` [Example 254] yielded an IC50 of 5 to 15 µM.
Molecule `Cc1c(-c2ccncc2)n[nH]c1NC(=O)c1ccc(OC2CCC2)cc1` [Example 255] has an IC50 of 5 to 15 µM.
Work on `CCc1c(-c2ccncc2)n[nH]c1NC(=O)CN1CCCc2sccc2C1=O` [Example 256] yielded an IC50 of 5 to 15 µM.
With `Cc1ccc(OCC(=O)Nc2[nH]nc(-c3ccncc3)c2C)cc1` [Example 257] the IC50 was 5 to 15 µM.
In the case of `Cc1c(-c2ccncc2)n[nH]c1NC(=O)CNC(=O)CC(C)(C)C` [Example 259], the IC50 is reported as 5 to 15 µM.
For `Cc1c(-c2ccncc2)n[nH]c1NC(=O)CCc1ccc(C(F)(F)F)nc1` [Example 261], the IC50 was under 5 µM.
In the case of `Cc1c(-c2ccncc2)n[nH]c1NC(=O)CCc1ccc(C#N)cc1` [Example 262], the IC50 is reported as under 5 µM.
`CNC(=O)Cc1c(-c2ccncc2)n[nH]c1NC(=O)CCc1ccc(Cl)cc1` [Example 263] was tested, and the IC50 was under 5 µM.
`O=C(CCc1ccc(Cl)cc1)Nc1[nH]nc(-c2ccnnc2)c1C1CCC1` [Example 264] was tested, and the IC50 was under 5 µM.
`O=C(CCc1ccc(Cl)nc1)Nc1[nH]nc(-c2ccnnc2)c1C1CCC1` [Example 265] gave an IC50 of under 5 µM.
Work on `O=C(CCc1ccc(Cl)nc1)Nc1[nH]nc(-c2ccncc2)c1F` [Example 266] yielded an IC50 of under 5 µM.
With `O=C(CCc1ccc(Cl)nc1)Nc1cc(-c2cccnc2)n[nH]1` [Example 267] the IC50 was 5 to 15 µM.
With `Cc1c(-c2ccncc2)n[nH]c1NC(=O)CCc1ccc(F)c(F)c1` [Example 268] the IC50 was under 5 µM.
Work on `Cc1c(-c2ccncc2)n[nH]c1NC(=O)COc1ccc(Cl)cc1` [Example 269] yielded an IC50 of under 5 µM.
`Cc1c(-c2ccncc2)n[nH]c1NC(=O)CCc1ccc(Cl)c(C#N)c1` [Example 270] showed an IC50 of under 5 µM.
`O=C(CCc1ccc(Cl)nc1)Nc1[nH]nc(-c2ccncc2)c1Cl` [Example 271] showed an IC50 of under 5 µM.
`O=C(CCc1ccc(Cl)nc1)Nc1[nH]nc(-c2ccnnc2)c1C1CC1` [Example 272] showed an IC50 of under 5 µM.
For `O=C(CCc1ccc(Cl)cc1)Nc1[nH]nc(-c2ccnnc2)c1C1CC1` [Example 273], the IC50 was under 5 µM.
`Cc1c(-c2ccncc2)n[nH]c1NC(=O)CCc1ccc(C#N)c(F)c1` [Example 274] showed an IC50 of under 5 µM.
Molecule `O=C(Nc1cc(-c2ccncc2)n[nH]1)C(O)Cc1ccc(Cl)cc1` (centres unmarked) [Example 275] has an IC50 of under 5 µM.
`O=C(Nc1nnc(-c2ccncc2)[nH]1)N[C@@H]1CCOc2cc(Cl)ncc21` [Example 276] was tested, and the IC50 was 5 to 15 µM.
In the case of `O=C(Nc1nnc(-c2ccncc2)[nH]1)N[C@H]1CCOc2cc(Cl)ncc21` [Example 277], the IC50 is reported as under 5 µM.
`Cc1c(-c2ccnnc2)n[nH]c1NC(=O)C[C@H]1CCOc2cc(Cl)ccc21` [Example 278] was tested, and the IC50 was under 5 µM.
With `Cc1c(-c2ccnnc2)n[nH]c1NC(=O)C[C@@H]1CCOc2cc(Cl)ccc21` [Example 279] the IC50 was under 5 µM.
Molecule `O=C(Nc1nnc(-c2ccncc2)[nH]1)[C@H]1C[C@H](c2ccc(Cl)nc2)C1` [Example 280] has an IC50 of under 5 µM.
`N#Cc1c(-c2ccncc2F)n[nH]c1NC(=O)CCc1ccc(Cl)nc1` [Example 281] was tested, and the IC50 was under 5 µM.
Work on `[2H]C([2H])([2H])c1c(-c2ccncc2)n[nH]c1NC(=O)CCc1ccc(Cl)nc1` [Example 282] yielded an IC50 of under 5 µM.
With `O=C(CC1CNc2cc(Cl)ccc21)Nc1nnc(-c2ccncc2)[nH]1` (centres unmarked) [Example 283] the IC50 was under 5 µM.
Work on `COCc1c(-c2ccncc2)n[nH]c1NC(=O)CCc1ccc(Cl)cc1` [Example 284] yielded an IC50 of under 5 µM.
`CNC(=O)Cc1c(-c2ccncc2)n[nH]c1NC(=O)CCc1ccc(Cl)nc1` [Example 285] gave an IC50 of under 5 µM.
`NC(=O)c1cnccc1-c1nnc(NC(=O)CCc2ccc(Cl)cc2)[nH]1` [Example 286] gave an IC50 of under 5 µM.
Work on `Cc1c(-c2ccncc2)nn(C)c1NC(=O)CCc1ccc(Cl)nc1` [Example 287] yielded an IC50 of under 5 µM.
For `Cc1c(-c2ccncc2)n[nH]c1N(C)C(=O)CCc1ccc(Cl)nc1` [Example 288], the IC50 was 5 to 15 µM.
Work on `Cc1c(-c2ccncc2)n[nH]c1NC(=O)[C@H](O)Cc1ccc(Cl)cc1` [Example 289] yielded an IC50 of under 5 µM.
`Cc1c(-c2ccncc2)n[nH]c1NC(=O)[C@@H](O)Cc1ccc(Cl)cc1` [Example 290] was tested, and the IC50 was under 5 µM.
`Cc1c(-c2ccncc2)n[nH]c1NC(=O)CSc1ccc(Cl)cc1` [Example 292] showed an IC50 of under 5 µM.
For `Cc1c(-c2ccncc2)n[nH]c1NC(=O)CS(=O)(=O)c1ccc(Cl)cc1` [Example 293], the IC50 was under 5 µM.
With `Nc1cnccc1-c1cc(NC(=O)CCc2ccc(Cl)nc2)[nH]n1` [Example 294] the IC50 was under 5 µM.
In the case of `O=C(Cc1coc2cc(Cl)ccc12)Nc1nnc(-c2ccncc2)[nH]1` [Example 295], the IC50 is reported as under 5 µM.
`O=C(Nc1nnc(-c2ccncc2)[nH]1)N1CCc2cc(Cl)ncc2C1` [Example 296] was tested, and the IC50 was under 5 µM.
`COCc1c(-c2ccncc2)n[nH]c1NC(=O)CCc1ccc(Cl)nc1` [Example 297] gave an IC50 of under 5 µM.
Molecule `O=C(CCc1ccc(Cl)cc1)Nc1cc(-c2ccncc2C2CC2)n[nH]1` [Example 298] has an IC50 of under 5 µM.
`O=C(CCc1ccc(Cl)cc1)Nc1cc(-c2ccncc2-c2ccccc2)n[nH]1` [Example 299] showed an IC50 of under 5 µM.
For `O=C(CCc1ccc(Cl)cc1)Nc1cc(-c2c(F)cncc2F)n[nH]1` [Example 300], the IC50 was under 5 µM.
For `CN(C)C(=O)Cc1c(-c2ccncc2)n[nH]c1NC(=O)CCc1ccc(Cl)cc1` [Example 301], the IC50 was under 5 µM.
`NC(=O)Cc1c(-c2ccncc2)n[nH]c1NC(=O)CCc1ccc(Cl)cc1` [Example 302] gave an IC50 of under 5 µM.
Molecule `CC1(c2c(-c3ccncc3)n[nH]c2NC(=O)CCc2ccc(Cl)cc2)CC1` [Example 303] has an IC50 of under 5 µM.
Work on `N#Cc1c(-c2ccnnc2)n[nH]c1NC(=O)CCc1ccc(Cl)nc1` [Example 304] yielded an IC50 of under 5 µM.
`Cc1ccc(CCC(=O)Nc2[nH]nc(-c3ccncc3)c2C)cn1` [Example 306] gave an IC50 of under 5 µM.
`Cc1ccc(CCC(=O)Nc2[nH]nc(-c3ccncc3F)c2C)cn1` [Example 307] showed an IC50 of under 5 µM.
`Cc1c(-c2ccncc2F)n[nH]c1NC(=O)CCc1ccc(Cl)s1` [Example 308] showed an IC50 of under 5 µM.
With `NC(=O)Cc1c(-c2ccncc2)n[nH]c1NC(=O)CCc1ccc(Cl)nc1` [Example 309] the IC50 was under 5 µM.
`CC1(c2c(-c3ccncc3)n[nH]c2NC(=O)CCc2ccc(Cl)nc2)CC1` [Example 310] showed an IC50 of under 5 µM.
Work on `CC1(c2c(-c3ccnnc3)n[nH]c2NC(=O)CCc2ccc(Cl)cc2)CC1` [Example 311] yielded an IC50 of under 5 µM.
Molecule `N#Cc1c(-c2ccnnc2)n[nH]c1NC(=O)CCc1ccc(Cl)cc1` [Example 312] has an IC50 of under 5 µM.
For `Cc1c(-c2ccncc2F)n[nH]c1NC(=O)CCc1ccc(Cl)cc1` [Example 313], the IC50 was under 5 µM.
`Cc1c(-c2ccncc2F)n[nH]c1NC(=O)CCc1ccc(Cl)nc1` [Example 314] gave an IC50 of under 5 µM.
For `O=C(CCc1ccc(Cl)cc1)Nc1nnc(-c2c(F)cncc2F)[nH]1` [Example 315], the IC50 was 5 to 15 µM.
`CN(C)C(=O)Cc1c(-c2ccncc2)n[nH]c1NC(=O)CCc1ccc(Cl)nc1` [Example 316] showed an IC50 of under 5 µM.
For `Cc1c(-c2ccncc2)n[nH]c1NC(CCc1ccc(Cl)cc1)C(F)(F)F` (centres unmarked) [Example 317], the IC50 was 5 to 15 µM.
Molecule `Cc1c(-c2ccncc2F)n[nH]c1NC(=O)[C@H]1C[C@H](c2ccc(Cl)cc2)C1` [Example 318] has an IC50 of under 5 µM.
Work on `Cc1c(-c2ccncc2F)n[nH]c1NC(=O)CCc1ccc(Cl)c(F)c1` [Example 320] yielded an IC50 of under 5 µM.
